Experimental data reported in patent publication US4762848A, “1,3-thiazoles and their use as immunomodulators” (Hoechst Aktiengesellschaft, priority 1985, dated 1988).

Tests used:
macrophages [1] = assay: Stimulation of macrophage activity (chemiluminescence), relative to the compound from Example 7; type: in vivo, NMRI mice; conditions: 100 mg/kg, 1 × i.p. day 0; relative to Example 7 = 100%
Description: (§1) This entailed investigation of the effect of the test substance obtained as in exemplary embodiment 7 on the stimulation of peritoneal macrophages in 6-8 week old NMRI mice. Female mice received the test substance in parenteral or oral doses of 25 mg/kg, 50 mg/kg, 100 mg/kg and 200 mg/kg. Buffered saline solution was administered to a control group. The mice were sacrificed three days after the injections, and the peritoneal macrophages of the animals were examined for their state of activation. The secretion of the lysosomal enzymes (β-galactosidase, β-glucuronidase and N-acetyl-β-D-glucosaminidase) was determined as one measure of macrophage activation. […] The level of oxidative metabolism in macrophages is taken as another measure of their state of activation. This activity is measured with the assistance of a biolumate by determination of the chemiluminescence.
(§2) For this purpose, either 3×10^6 macrophages were cultured with 1 ml of TC 199 culture medium in Petri dishes of diameter 30 mm or 10^6 macrophages were cultured with 100 μl of medium in round-bottomed polyethylene tubes (for determination of the chemiluminescence), with 5% CO2 and at 37° C.
(§3) After incubation for one hour, the cultures were washed to remove floating cells. The chemiluminescence (tube culture) was then determined directly, whereas the Petri dishes were incubated for a further 24 hours at 37° C. and then the enzyme and pinocytosis activities in the cultures were determined.
(§4) NMRI mice were treated with the compounds according to the invention as described in experiment 2.
(§5) The macrophage function (chemiluminescence and enzyme activity) was checked as a test to determine the immunostimulation.
(§6) It can be seen from the table that in comparison with macrophages from untreated animals, the chemiluminescence reaction of these cells was also greatly stimulated by all the test substances, and their content of lysosomal enzymes was markedly raised.

macrophages [2] = assay: Stimulation of macrophage activity (exocytosis / lysosomal enzyme activity), relative to the compound from Example 7; type: in vivo, NMRI mice; conditions: 100 mg/kg, 1 × i.p. day 0; relative to Example 7 = 100%
Description: as §1, §2, §3, §4, §5, §6

Candida albicans = conditions: ketoconazole 70 mg/kg (d-1-6, p.o.) alone
Description: Female Balb/c mice (15/group) were infected intravenously with Candida albicans (10^6 cfu/mouse) (day 0). Three groups were formed: group 1 was treated with physiological saline solution, and group 2 received 70 mg/kg ketoconazole orally on 7 consecutive days (days -1-6). Group 3 received 10 intraperitoneal injections of 2 mg/kg test substance on days 3-30 (every 3rd day) in addition to ketoconazole. The number of animals which died was recorded each day, and the time at which 50% of the animals in each group had died (T50) was determined.

DTH reaction (SRBC) = assay: Stimulation of the DTH reaction, relative to the compound from Example 7; type: in vivo, NMRI mice; conditions: 1 × i.p. day 0, relative to Example 7 = 100%
Description: Either 10^6 or 10^9 red blood cells from sheep were administered intravenously to each animal in groups of 5 female NMRI mice weighing 18-20 g. Sheep erythrocytes are regarded in immunology as a standard test substance (antigen) for the induction of cellular and humoral immune reactions. In particular, this test provides information about the functioning of the T-cell-dependent component (T-helper cells) of the immune system. The test substance obtained as in exemplary embodiment 7 ([2-(3-carboxy-1-propylthio)-4 -methyl-1,3-thiazol-5-yl]acetic acid) was administered intraperitoneally and perorally, respectively, […], each animal received 2×10^8 sheep erythrocytes injected into the underside of the foot and, 24 hours later, the swelling of the foot was measured. The foot swelling is induced by a skin reaction of the delayed type (delayed type hypersensitivity, DTH) and is, as is known to the expert, a measure of the cellular immune response (Collins, F. M. and Mackaness, G. B., J. Immunol. 101, 830-845, 1968). The results compiled in Table 1 illustraste that there is an increase in the cellular immune response owing to the administration of the subst nce obtained according to the invention, for example after imnunization with 10^6 or 10^9 sheep erythrocytes. An optimum stimulation can be observed in this experimental design on administration of 20-40 mg/kg test substance.
NMRI mice were treated with the substances according to the invention as described in experiment 1.
The DTH reaction was checked as a test to determine the immunostimulation.
It can be seen from the table that the DTH reaction in the animals pretreated with the test substances is more pronounced than in the corresponding control animals.

Row | Structure (SMILES) | Macrophage activity: Chemiluminescence, relative activity (macrophages [1]) [%] | Macrophage activity: Exocytosis, relative activity (macrophages [2]) [%] | T50 (time at which 50% of the animals had died) (Candida albicans) [days] | DTH reaction (SRBC), relative activity (DTH reaction (SRBC); 100 mg/kg) [%] | DTH reaction (SRBC), relative activity (DTH reaction (SRBC); 20 mg/kg) [%]
1 | O=C(O)CSc1scnc1C(=O)O [Example 15, 5-Carboxymethylthio-1,3-thiazol-4-ylcarboxylic acid] | 49 | 172 |  |  | 
2 | CC(=O)N1CCN(c2ccc(OCC3COC(Cn4ccnc4)(c4ccc(Cl)cc4Cl)O3)cc2)CC1 (centres unmarked) [Ketoconazole, ketoconazole] |  |  | 18 |  | 
3 | CSc1nc(C)c(CC(=O)O)s1 [Example 1, 2-Methylmercapto-4-methyl-1,3-thiazol-5-ylacetic acid] | 29 | 124 |  |  | 
4 | O=C(O)CSc1nc(O)nn1-c1ccccc1 [Example 24, 1-Phenyl-3-hydroxy-1,2,4-triazol-5-ylmercaptoacetic acid] | 57 | 218 |  | 115 | 
5 | O=C(O)CSc1nnc(SCC(=O)O)s1 [Example 25, 2,5-Dicarboxymethylthio-1,3,4-thiadiazole] | 26 | 186 |  | 115 | 
6 | Cc1nc(SCCCC(=O)O)sc1C(=O)O [Example 39] | 35 | 148 |  | 210 | 
7 | O=C(O)CCCSc1nnc(SCCCC(=O)O)s1 [Example 27, 2,5-Di(3-carboxy-1-propylthio)-1,3,4-thiadiazole] | 22 | 258 |  |  | 144
